Holding throughout (format): physicochemical
Data set [1] can be described thus: Absorption spectrum of toluene solution (maximum absorption, gram absorption coefficient). As to conditions: for gram absorption coefficient: at maximum absorption. How it is done: A toluene solution of the compound obtained in this way had maximum absorption at 734.0 nm, and the gram absorption coefficient thereof was 1.21×10^5 mL/g·cm. The absorption spectrum chart thereof is illustrated in FIG. 1.

Data set [2] is described as follows: Solubility in organic solvent (cyclopentanone). The conditions noted are these: about 10 wt % dispersion, room temperature, 0.2 μm filter; no residue = 10 wt % or more. The method, then:
The solubility of the phthalocyanine compound with respect to cyclopentanone was measured by the following method.
Cyclopentanone was added to about 1 g of the phthalocyanine compound such that the total weight thereof became about 10 g, and the obtained solution was irradiated with ultrasonic waves for about 30 minutes and then stirred for 2 hours at room temperature, thereby preparing a dispersion liquid of about 10 wt %.
The dispersion liquid was filtered through a membrane filter (0.2 μm), the substance obtained by filtration was dried for 1 hour in a drier at 60° C., and then the weight of the substance obtained by filtration was measured.
The solubility of the phthalocyanine compound in a solvent is expressed by the following equation. Solubility (wt %)=(W0−W1)/W0
W0 represents the correct weight of the phthalocyanine not yet being treated, and W1 represents the weight of the substance obtained by filtration (dissolved phthalocyanine compound residue) having been dried.

A short description of data set [3]: Tts (total solar transmittance) of heat ray shielding film. As to conditions: heat ray shielding film (5 g compound, 50 g acryl resin LP-45M, 2.5 μm on PET) on 3 mm glass plate; JIS R3106. An excerpt:
The phthalocyanine compound (Specific Example (1)-30) produced in Example 1 (5 g), 50 g of an acryl resin LP-45M (trade name, produced by Soken Chemical & Engineering Co., Ltd.), 20 g of methyl ethyl ketone, and 20 g of toluene were mixed and stirred together, thereby producing a resin composition.
As a transparent substrate, a polyethylene terephthalate film (PET film) having a thickness of 100 μm was bar-coated with the resin composition such that the thickness thereof became 2.5 μm, and then the applied resin composition was dried for 3 minutes at 100° C. Furthermore, the other surface of the PET film (surface not being coated with the resin composition) was bar-coated with a transparent acryl copolymer-based pressure sensitive adhesive such that the thickness thereof became 20 μm, and the applied pressure sensitive adhesive was dried and cured for 3 minutes at 100° C. Thereafter, a release film was bonded to the surface of the pressure sensitive adhesive, thereby producing a heat ray shielding film.
(§1) In the evaluation test, the release film was peeled from the produced heat ray shielding film, then the heat ray shielding film was compressed on a 5 cm×5 cm×3 mm (thickness) glass plate, and a test piece created in this way was used.
By using U-3500 type recording spectrophotometer produced by Hitachi, Ltd. as a measurement instrument, Tts of the laminated glass sample was measured based on JIS R3106 “Testing method for transmittance, reflectance, emissivity, and solar heat gain coefficient of flat glasses”.
Tts (Total solar energy transmitted through a glazing) represents a total solar transmittance.

The nature of data set [4]: Light fastness test of heat ray shielding film. The conditions noted are these: xenon light 200 hours at 550 W/h, absorbance integrated 400 to 900 nm. How it is done: as §1
For a light fastness test, the absorption spectrum of the test piece was measured using a spectrophotometer (produced by Hitachi, Ltd.: Spectrophotometer U-3500) and adopted as a spectrum before light fastness test. Then, the test piece used for measuring the spectrum before test was irradiated with light for 200 hours at 550 W/h by using a xenon light fastness tester (produced by Toyo Seiki Seisaku-sho, Ltd.: SUNTEST XLS+). The absorption spectrum of the test piece irradiated with light was measured using the spectrophotometer and adopted as a spectrum after light fastness test.
(§2) In each of the spectra measured as above before and after the light fastness⋅heat resistance test, the values of absorbance within a range of 400 to 900 nm were integrated, and a difference between the integrated value before the light fastness⋅heat resistance test and the integrated value after the light fastness⋅heat resistance test was calculated.
(§3) The difference ΔE between the absorbance before the light fastness⋅heat resistance test and the absorbance after the light fastness⋅heat resistance test is expressed by the following equation. ΔE (%)={E(400 to 900 nm in E1)−E(400 to 900 nm in E2)}/E(400 to 900 nm in E1)×100
(§4) E1 represents the spectrum before test, E2 represents the spectrum after test, and Σ represents integration of the values of absorbance.
(§5) The larger the value of ΔE, the greater the spectrum change between before and after the light fastness⋅heat resistance test.

Data set [5] in a line: Heat resistance test of heat ray shielding film. As to conditions: 200 hours at 100° C., absorbance integrated 400 to 900 nm. How it is done:
as §1
For a heat resistance test, the test piece used for measuring the spectrum before test as described above was treated with heat for 200 hours at a temperature of 100° C. in a thermostat (produced by Yamato Scientific co., ltd.: IG400). By using the spectrophotometer, the absorption spectrum of the heat-treated test piece was measured and adopted as a spectrum after heat resistance test.
as §2, §3, §4, §5

A short description of data set [6]: Tts of laminated glass sample. As to conditions: 0.76 mm PVB interlayer with 0.013 g compound per 100 g resin, JIS R3106. The method, then:
(§6) The phthalocyanine-based compound (Specific Example (1)-30) produced in Example 1 (0.013 g) was dissolved in 40 g of triethylene glycol-di-2-ethylhexanoate as an organic ester plasticizer. The obtained solution was added to 100 g of a polyvinyl butyral resin (trade name: BH-3, produced by SEKISUI CHEMICAL CO., LTD.), thoroughly melted and kneaded using a mixing roll, and extruded using an extruder, thereby obtaining an interlayer having a thickness of 0.76 mm.
(§7) The interlayer was cut in size of 100 mm×100 mm, interposed between heat ray absorbing glass plates (100 mm (length)×100 mm (width)×2.0 mm (thickness)) prepared based on JIS R3208, put into a rubber bag, and deaerated for 20 minutes at a degree of vacuum of 2.6 kPa. Then, the deaerated laminate was moved into an oven and further hold for 30 minutes at 90° C. to vacuum press. Thereafter, the laminate was compressed for 20 minutes in an autoclave under the condition of a temperature of 130° C. and a pressure of 1.3 MPa, thereby obtaining a laminated glass sample.
By using U-3500 type recording spectrophotometer produced by Hitachi, Ltd. as a measurement instrument, Tts of the laminated glass samples was measured based on JIS R3106 “Testing method for transmittance, reflectance, emissivity, and solar heat gain coefficient of flat glasses”.

Data set [7] is described as follows: Heat resistance test of laminated glass. As to conditions: 200 hours at 100° C., absorbance integrated 400 to 900 nm. The method, then:
as §6, §7
For a heat resistance test, the laminated glass used for measuring the spectrum before test as described above was treated with heat for 200 hours at a temperature of 100° C. in a thermostat (produced by Yamato Scientific co., ltd.: IG400). By using the spectrophotometer, the absorption spectrum of the heat-treated laminated glass was measured and adopted as a spectrum after heat resistance test.
as §2, §3
E1 represents the spectrum before test, E2 represents the spectrum after test, and Σ represents integration of values of absorbance. The larger the value of ΔE, the greater the spectrum change between before and after the light fastness⋅heat resistance test.

Some results are limits rather than exact numbers.

In turn, `COCCCCc1ccc(CCCCOC)c2c1-c1nc-2nc2[n-]c(nc3nc(nc4[n-]c(n1)c1c(CCCCOC)ccc(CCCCOC)c41)-c1c(CCCCOC)ccc(CCCCOC)c1-3)c1c(CCCCOC)ccc(CCCCOC)c21.[Cu+2]` [Specific Example (1)-31] showed a maximum absorption in data set [1] of 705.5 nm. Further, the gram absorption coefficient in data set [1] came to 78900 mL/g/cm. Besides, the “Solubility to cyclopentanone (wt %)” value in data set [2] is not below 10% wt %. The Tts in data set [3] is 86%; in data set [6], 51.5%. The “ΔE (%) Light fastness” value in data set [4] is 3%. Also, the “ΔE (%) Heat resistance” value in data set [5] stood at 3%; in data set [7], 2%.
For the compound `Fc1ccccc1OCCCCc1ccc(CCCCOc2ccccc2F)c2c1-c1nc-2nc2[n-]c(nc3nc(nc4[n-]c(n1)c1c(CCCCOc5ccccc5F)ccc(CCCCOc5ccccc5F)c41)-c1c(CCCCOc4ccccc4F)ccc(CCCCOc4ccccc4F)c1-3)c1c(CCCCOc3ccccc3F)ccc(CCCCOc3ccccc3F)c21.[O]=[V+2]` [Specific Example (1)-43], the maximum absorption in data set [1] stood at 735.5 nm. This compound gave a gram absorption coefficient in data set [1] of 78900 mL/g/cm. Moreover, the “Solubility to cyclopentanone (wt %)” value in data set [2] is listed as not below 10% wt %. Also, the values for the Tts in data set [3] and in data set [6] were 85.7% and 52%, respectively. The “ΔE (%) Light fastness” value in data set [4] came to 2%. Also, the “ΔE (%) Heat resistance” value in data set [5] is 3%; in data set [7], 4%.
In data set [1], `COc1cccc(OCCCCc2ccc(CCCCOc3cccc(OC)c3)c3c2-c2nc-3nc3[n-]c(nc4nc(nc5[n-]c(n2)c2c(CCCCOc6cccc(OC)c6)ccc(CCCCOc6cccc(OC)c6)c52)-c2c(CCCCOc5cccc(OC)c5)ccc(CCCCOc5cccc(OC)c5)c2-4)c2c(CCCCOc4cccc(OC)c4)ccc(CCCCOc4cccc(OC)c4)c32)c1.[O]=[V+2]` [Specific Example (1)-39] returned a maximum absorption of 735.5 nm. In data set [1], this compound displayed a gram absorption coefficient of 74000 mL/g/cm. Further, in data set [2], the “Solubility to cyclopentanone (wt %)” value was not below 10% wt %. Further, the Tts was found to be 85.9% in data set [3] and 52.7% in data set [6]. The “ΔE (%) Light fastness” value in data set [4] is 4%. The “ΔE (%) Heat resistance” value in data set [5] and in data set [7] was 3% each time.
`COc1cccc(OCCCCc2ccc(CCCCOc3cccc(OC)c3)c3c2-c2nc-3nc3[n-]c(nc4nc(nc5[n-]c(n2)c2c(CCCCOc6cccc(OC)c6)ccc(CCCCOc6cccc(OC)c6)c52)-c2c(CCCCOc5cccc(OC)c5)ccc(CCCCOc5cccc(OC)c5)c2-4)c2c(CCCCOc4cccc(OC)c4)ccc(CCCCOc4cccc(OC)c4)c32)c1.[Cu+2]` [Specific Example (1)-40] showed a maximum absorption in data set [1] of 706.5 nm. The same compound gave a gram absorption coefficient in data set [1] of 67800 mL/g/cm. In data set [2], the “Solubility to cyclopentanone (wt %)” value is not below 10% wt %. Also, the Tts worked out at 85.9% in data set [3] and 52% in data set [6]. In addition, the “ΔE (%) Light fastness” value in data set [4] turned out to be 2%. The figures for the “ΔE (%) Heat resistance” value in data set [5] and in data set [7] were 3% and 2%, respectively.
Take `[O]=[V+2].c1ccc(OCCOCCCCc2ccc(CCCCOCCOc3ccccc3)c3c2-c2nc-3nc3[n-]c(nc4nc(nc5[n-]c(n2)c2c(CCCCOCCOc6ccccc6)ccc(CCCCOCCOc6ccccc6)c52)-c2c(CCCCOCCOc5ccccc5)ccc(CCCCOCCOc5ccccc5)c2-4)c2c(CCCCOCCOc4ccccc4)ccc(CCCCOCCOc4ccccc4)c32)cc1` [Specific Example (1)-38]: the maximum absorption in data set [1] was found to be 735.0 nm. The compound further came in with a gram absorption coefficient in data set [1] of 71600 mL/g/cm. Further, the “Solubility to cyclopentanone (wt %)” value in data set [2] is not below 10% wt %. For the same compound, the values for the Tts in data set [3] and in data set [6] were 85.8% and 51.7%, respectively. The “ΔE (%) Light fastness” value in data set [4] worked out at 5%. Also, the “ΔE (%) Heat resistance” value in data set [5] is 3%; in data set [7] it was 2%.
